# Experimental data from patent publication US20200123208A1, “PEPTIDES AND NEMATICIDAL COMPOSITIONS” (priority 2017, published 2020).
# How the values were obtained:
# Assay type in all cases: in vivo
# [1] = system: Meloidogyne incognita infective stage juveniles (J2s); assay: Chemosensory (chemotaxis) assay towards root exudate, M. incognita J2s; conditions: for chemotaxis index (Cl) towards root exudate: M. incognita J2s
# Description: (§1) Predicted uNLPs from both M. incognita and G. pallida were synthesised by EZBiolab and dissolved into pH adjusted ddH2O to make a 5 mM stock which was aliquoted and stored at −20° C. J2s of both M. incognita and G. pallida were incubated for 24 hours in 200 μl of each peptide in a 24 well plate (SPL Lifesciences, South Korea) at a defined concentration.
# A 60 mm Petri dish was divided into two segments, a positive and a negative side, with a 0.5 cm ‘dead zone’ either side of the centre point. The petri dish was filled with 15 ml of 0.25% w/v agar which was allowed to solidify. 3 ml of 0.25% w/v agar slurry in spring water (pH 7, agitated with a magnetic stirrer for several hours to give a smooth consistency) was added to the petri dish and spread evenly over the surface. Root diffusate (attractant) and water only (control) 0.25% agar plugs were embedded in the agar slurry, either side of the assay arena. Root diffusate was collected from 10 tomato plants, aged 3-6 weeks in 1 litre pots, by pouring 500 ml of ddH2O through the soil three times. Diffusate from each plant was combined, filter sterilised and stored at 4° C. for a maximum of 1 month. Root diffusate agar plugs were made by melting 1.25% agar in ddH2O, cooling to 50° C. before mixing with 4 parts of root diffusate. The agar was then allowed to solidify at room temperature. 100 uNLP pre-treated M. incognita or G. pallida J2s were added by pipette to the centre of the plate. J2s which moved out of the ‘dead zone’ after 3 hours were counted and their location (+/−) scored. The distribution of J2s were used to create a chemotaxis index for each plate, which formed one replicate, a total of 10 replicates where completed for each uNLP treatment.
# [2] = system: Meloidogyne incognita J2s; assay: Serotonin-induced stylet thrusting assay, M. incognita J2s; conditions: 100 μM uNLP, 24 h, 5 mM serotonin
# Description: as §1
# Stylet thrusting assays where performed by incubating 100 M. incognita or G. pallida J2s for 15 minute in 5 mM or 2 mM serotonin (Sigma Aldrich, USA), respectively. J2s were placed on a glass slide and stylet thrusts were counted for randomly selected J2s, for 1 minute each. Counting took place for a maximum of 15 minutes. Longer incubations yielded inconsistent results. At least 30 J2s were counted for each neuropeptide treatment.
# Globodera pallida J2s = assay: Tomato invasion assay, G. pallida J2s; conditions: exogenous pre-treatment of J2s
# Description: as §1
# Tomato seeds were sterilised with 2.5% NaOCl for 15 minutes, washed 5 times in ddH2O and germinated on 0.5% Murashige and Skoog plates at 23° C. […] Invasion assays were performed by mixing 500 pre-treated M. incognita or G. pallida J2s with agar slurry and a single tomato seedling (2 days post germination) in a 6 well plate. Assays were left at 23° C. for 24 hours in the case of M. incognita and at 18° C. for 24 hours in the case of G. pallida under a 16 hour light and 8 hour darkness cycle. Seedlings were stained using acid fuschin [69] and the number of nematodes within the roots counted.
# [3] = system: Steinernema carpocapsae infective juveniles; assay: S. carpocapsae host-finding assay (non-target nematode); conditions: S. carpocapsae IJs, 100 μM, 24 h; no statistically significant impact; control 0.2315
# Description: S. carpocapsae were cultured in Galleria mellonella at 23° C. Infective juveniles (IJs) were collected using a White trap in PBS. Freshly emerged IJs were used for each assay. 100 IJs were incubated for 24 hours in 100 μM of selected uNLPs, and host-finding assays performed as in Morris et al..
sequence,measurement,setting,value
SFDSFTGPGFTGLD [Mi-NLP-15b],chemotaxis index (Cl) towards root exudate,"[1]; 100 μM uNLP, 24 h, mean+/-SEM",−0.3408+/−0.2207
same,chemotaxis index (Cl) towards root exudate,"[1]; Mi-NLP-15b 100 pM, 24 h",0.03117+/−0.1594
same,chemotaxis index (Cl) towards root exudate,"[1]; Mi-NLP-15b 1 nM, 24 h",−0.07105+/−0.1534
same,chemotaxis index (Cl) towards root exudate,"[1]; Mi-NLP-15b 10 nM, 24 h",−0.1741+/−0.1724
same,chemotaxis index (Cl) towards root exudate,"[1]; Mi-NLP-15b 100 nM, 24 h",−0.1195+/−0.1968
same,chemotaxis index (Cl) towards root exudate,"[1]; Mi-NLP-15b 1 μM, 24 h",−0.1344+/−0.1733
same,chemotaxis index (Cl) towards root exudate,"[1]; Mi-NLP-15b 10 μM as printed (last of the series, after 100 pM), 24 h",−0.1553+/−0.2642
same,chemotaxis index (Cl) towards root exudate,"[1]; Mi-NLP-15b 10 μM, 24 h (dilution series)",−0.03579+/−0.1504
same,chemotaxis index (Cl) towards root exudate,"[1]; Mi-NLP-15b 100 μM, 24 h (dilution series)",−0.3782+/−0.07224
same,lowest concentration inhibiting M. incognita chemosensation,"[1]; serial dilution, 24 h exposure",10 pM
same,rate of serotonergic-induced stylet thrusting compared with controls,[2],129.9%+/−10.59
same,effect of exogenous peptide exposure on G. pallida host invasion (in words),Globodera pallida J2s,does not inhibit host invasion
same,insect host-finding index (Cl) towards Galleria mellonella,[3],0.2225+/−0.043
